Test results reported in PMC7320180, “Hydroxamic acid derivatives as HDAC1, HDAC6 and HDAC8 inhibitors with antiproliferative activity in cancer cell lines” (Scientific Reports, 2020).

The compounds below were run on HepG2 cells (assay: MTT cytotoxicity test, HepG2). Settings: Homo sapiens, HepG2.
Type: cell-based
Protocol: (§1) All compounds were evaluated in triplicate using six points, 1/3 dilutions, with the highest concentration of 50 µM. The triplicate measurements were placed in three different 96-plates, and 1% DMSO was used as a negative control.
(§2) The first sets of […] (GH38, GH18, GH27, FH38, FH18, […] and FH37) were evaluated in different cancer cell lines: HepG2, MCF-7, SH-SY5Y, MIA PaCa-2, and […]. Furthermore, the second series of eight compounds were evaluated using seven cell lines: SH-SY5Y which is a neuroblastoma cell line; HepG2, a hepatocellular carcinoma cell line; MIA PaCa-2, a human pancreatic carcinoma cell line; MCF-7, a breast cancer cell line; HCC1954, a basal-Her2+ breast carcinoma cell line; RCC4-VA, a renal carcinoma cell line with a VHL mutation; and RCC4-VHL, a renal carcinoma cell without the VHL mutation (wild type). The cells used were seeded in 96-well plates and left for 24 h (5% CO2 and 90% humidity, 50000 cells/well) and incubated for 3 days to study the cytotoxicity.

SMILES	inhibition at 50 µM
Cc1ccc(C(=O)N[C@@H](Cc2ccccc2)C(=O)NO)cc1 [FH18, (S)-N-(1-(hydroxyamino)-1-oxo-3-phenylpropan-2-yl)-4-methylbenzamide]	5.52%
CCCCc1ccc(C(=O)N[C@@H](Cc2ccccc2)C(=O)NO)cc1 [FH27, (S)-4-butyl-N-(1-(hydroxyamino)-1-oxo-3-phenylpropan-2-yl)benzamide]	35.4%
CCCC(CCC)C(=O)N[C@@H](Cc1ccccc1)C(=O)NO [FH37, (S)-N-(1-(hydroxyamino)-1-oxo-3-phenylpropan-2-yl)-2-propylpentanamide]	48.6%
O=C(N[C@@H](Cc1ccccc1)C(=O)NO)c1ccccc1 [FH38, (S)-N-(1-(hydroxyamino)-1-oxo-3-phenylpropan-2-yl)benzamide]	14.1%
Cc1ccc(C(=O)NCC(=O)NO)cc1 [GH18, N-(2-(hydroxyamino)-2-oxoethyl)-4-methyl benzamide]	3.08%
CCCCc1ccc(C(=O)NCC(=O)NO)cc1 [GH27, 4-butyl-N-(2-(hydroxyamino)-2-oxoethyl)benzamide]	1.38%
O=C(CNC(=O)c1ccccc1)NO [GH38, N-(2-(hydroxyamino)-2-oxoethyl)benzamide]	1.01%

Same assay, conditions: Homo sapiens, HepG2, 72 h; read-out: IC50 HepG2

SMILES	IC50
Cc1ccc(C(=O)N[C@@H](Cc2ccccc2)C(=O)NO)cc1 [FH18, (S)-N-(1-(hydroxyamino)-1-oxo-3-phenylpropan-2-yl)-4-methylbenzamide]	> 50 µM
CCCCc1ccc(C(=O)N[C@@H](Cc2ccccc2)C(=O)NO)cc1 [FH27, (S)-4-butyl-N-(1-(hydroxyamino)-1-oxo-3-phenylpropan-2-yl)benzamide]	> 50 µM
CCCC(CCC)C(=O)N[C@@H](Cc1ccccc1)C(=O)NO [FH37, (S)-N-(1-(hydroxyamino)-1-oxo-3-phenylpropan-2-yl)-2-propylpentanamide]	> 50 µM
O=C(N[C@@H](Cc1ccccc1)C(=O)NO)c1ccccc1 [FH38, (S)-N-(1-(hydroxyamino)-1-oxo-3-phenylpropan-2-yl)benzamide]	> 50 µM
Cc1ccc(C(=O)NCC(=O)NO)cc1 [GH18, N-(2-(hydroxyamino)-2-oxoethyl)-4-methyl benzamide]	> 50 µM
CCCCc1ccc(C(=O)NCC(=O)NO)cc1 [GH27, 4-butyl-N-(2-(hydroxyamino)-2-oxoethyl)benzamide]	> 50 µM
O=C(CNC(=O)c1ccccc1)NO [GH38, N-(2-(hydroxyamino)-2-oxoethyl)benzamide]	> 50 µM

What follows are compounds tested on MIA PaCa-2 cells (assay: MTT cytotoxicity test, MIA PaCa-2). Settings: Homo sapiens, MIA PaCa-2.
Type: cell-based
Protocol: as §1, §2

SMILES	inhibition at 50 µM
Cc1ccc(C(=O)N[C@@H](Cc2ccccc2)C(=O)NO)cc1 [FH18, (S)-N-(1-(hydroxyamino)-1-oxo-3-phenylpropan-2-yl)-4-methylbenzamide]	0.05%
CCCCc1ccc(C(=O)N[C@@H](Cc2ccccc2)C(=O)NO)cc1 [FH27, (S)-4-butyl-N-(1-(hydroxyamino)-1-oxo-3-phenylpropan-2-yl)benzamide]	2.82%
CCCC(CCC)C(=O)N[C@@H](Cc1ccccc1)C(=O)NO [FH37, (S)-N-(1-(hydroxyamino)-1-oxo-3-phenylpropan-2-yl)-2-propylpentanamide]	7.47%
O=C(N[C@@H](Cc1ccccc1)C(=O)NO)c1ccccc1 [FH38, (S)-N-(1-(hydroxyamino)-1-oxo-3-phenylpropan-2-yl)benzamide]	0.43%
Cc1ccc(C(=O)NCC(=O)NO)cc1 [GH18, N-(2-(hydroxyamino)-2-oxoethyl)-4-methyl benzamide]	4.44%
CCCCc1ccc(C(=O)NCC(=O)NO)cc1 [GH27, 4-butyl-N-(2-(hydroxyamino)-2-oxoethyl)benzamide]	10.7%
O=C(CNC(=O)c1ccccc1)NO [GH38, N-(2-(hydroxyamino)-2-oxoethyl)benzamide]	0.18%

Same assay, conditions: Homo sapiens, MIA PaCa-2, 72 h; read-out: IC50 MIA PaCa-2

SMILES	IC50
Cc1ccc(C(=O)N[C@@H](Cc2ccccc2)C(=O)NO)cc1 [FH18, (S)-N-(1-(hydroxyamino)-1-oxo-3-phenylpropan-2-yl)-4-methylbenzamide]	> 50 µM
CCCCc1ccc(C(=O)N[C@@H](Cc2ccccc2)C(=O)NO)cc1 [FH27, (S)-4-butyl-N-(1-(hydroxyamino)-1-oxo-3-phenylpropan-2-yl)benzamide]	> 50 µM
CCCC(CCC)C(=O)N[C@@H](Cc1ccccc1)C(=O)NO [FH37, (S)-N-(1-(hydroxyamino)-1-oxo-3-phenylpropan-2-yl)-2-propylpentanamide]	> 50 µM
O=C(N[C@@H](Cc1ccccc1)C(=O)NO)c1ccccc1 [FH38, (S)-N-(1-(hydroxyamino)-1-oxo-3-phenylpropan-2-yl)benzamide]	> 50 µM
Cc1ccc(C(=O)NCC(=O)NO)cc1 [GH18, N-(2-(hydroxyamino)-2-oxoethyl)-4-methyl benzamide]	> 50 µM
CCCCc1ccc(C(=O)NCC(=O)NO)cc1 [GH27, 4-butyl-N-(2-(hydroxyamino)-2-oxoethyl)benzamide]	> 50 µM
O=C(CNC(=O)c1ccccc1)NO [GH38, N-(2-(hydroxyamino)-2-oxoethyl)benzamide]	> 50 µM

Each compound was assayed on MCF-7 cells (assay: MTT cytotoxicity test, MCF-7). Settings: Homo sapiens, MCF7.
Type: cell-based
Protocol: as §1, §2

SMILES	inhibition at 50 µM
Cc1ccc(C(=O)N[C@@H](Cc2ccccc2)C(=O)NO)cc1 [FH18, (S)-N-(1-(hydroxyamino)-1-oxo-3-phenylpropan-2-yl)-4-methylbenzamide]	41.2%
CCCCc1ccc(C(=O)N[C@@H](Cc2ccccc2)C(=O)NO)cc1 [FH27, (S)-4-butyl-N-(1-(hydroxyamino)-1-oxo-3-phenylpropan-2-yl)benzamide]	37.6%
CCCC(CCC)C(=O)N[C@@H](Cc1ccccc1)C(=O)NO [FH37, (S)-N-(1-(hydroxyamino)-1-oxo-3-phenylpropan-2-yl)-2-propylpentanamide]	49.1%
O=C(N[C@@H](Cc1ccccc1)C(=O)NO)c1ccccc1 [FH38, (S)-N-(1-(hydroxyamino)-1-oxo-3-phenylpropan-2-yl)benzamide]	21%
Cc1ccc(C(=O)NCC(=O)NO)cc1 [GH18, N-(2-(hydroxyamino)-2-oxoethyl)-4-methyl benzamide]	17.2%
CCCCc1ccc(C(=O)NCC(=O)NO)cc1 [GH27, 4-butyl-N-(2-(hydroxyamino)-2-oxoethyl)benzamide]	40.4%
O=C(CNC(=O)c1ccccc1)NO [GH38, N-(2-(hydroxyamino)-2-oxoethyl)benzamide]	16.1%

Same assay, conditions: Homo sapiens, MCF7, 72 h; read-out: IC50 MCF-7

SMILES	IC50
Cc1ccc(C(=O)N[C@@H](Cc2ccccc2)C(=O)NO)cc1 [FH18, (S)-N-(1-(hydroxyamino)-1-oxo-3-phenylpropan-2-yl)-4-methylbenzamide]	> 50 µM
CCCCc1ccc(C(=O)N[C@@H](Cc2ccccc2)C(=O)NO)cc1 [FH27, (S)-4-butyl-N-(1-(hydroxyamino)-1-oxo-3-phenylpropan-2-yl)benzamide]	> 50 µM
CCCC(CCC)C(=O)N[C@@H](Cc1ccccc1)C(=O)NO [FH37, (S)-N-(1-(hydroxyamino)-1-oxo-3-phenylpropan-2-yl)-2-propylpentanamide]	> 50 µM
O=C(N[C@@H](Cc1ccccc1)C(=O)NO)c1ccccc1 [FH38, (S)-N-(1-(hydroxyamino)-1-oxo-3-phenylpropan-2-yl)benzamide]	> 50 µM
Cc1ccc(C(=O)NCC(=O)NO)cc1 [GH18, N-(2-(hydroxyamino)-2-oxoethyl)-4-methyl benzamide]	> 50 µM
CCCCc1ccc(C(=O)NCC(=O)NO)cc1 [GH27, 4-butyl-N-(2-(hydroxyamino)-2-oxoethyl)benzamide]	> 50 µM
O=C(CNC(=O)c1ccccc1)NO [GH38, N-(2-(hydroxyamino)-2-oxoethyl)benzamide]	> 50 µM
